Calls of active or inactive are those of the source. No cut-off for these calls is given here.
Columns and labels:
[1] = tested on: MCF7; test: Antiproliferative activity human ER-positive MCF7 cells after 2 days by MTT assay; format: functional, cell-based; conditions: MCF7, 48 h
[2] = tested on: MDA-MB-231; test: Antiproliferative activity human ER-negative MDA-MB-231 cells after 2 days by MTT assay; format: functional, cell-based; conditions: MDA-MB-231, 48 h
[3] = Antiproliferative activity mouse B16F10 cells after 2 days by MTT assay; format: functional, cell-based; conditions: B16-F10, 48 h
[4] = Antiproliferative activity human MIAPaCa2 cells after 2 days by MTT assay; format: functional, cell-based; conditions: MIA PaCa-2, 48 h
[5] = tested on: CHO; test: Antiproliferative activity against CHO cells after 2 days by MTT assay; format: cell-based; conditions: Cricetulus griseus, 48 h
[6] = Antiproliferative activity mouse NIH/3T3 cells after 2 days by MTT assay; format: cell-based; conditions: NIH3T3, 48 h
[7] = tested on: B16-F10; test: Antitumor activity against mouse B16F10 cells inoculated in C57BL6J mouse assessed as tumor regression at 9.15 mg/kg, ip for 9 days; format: functional, organism-based; set-up: dose 9.15 mg/kg
[8] = tested on: B16-F10; test: Induction of apoptosis in mouse B16F10 cells assessed as necrotic cells at 5 uM after 24 hrs by FITC-annexin V/PI staining based flow cytometry (RVB = 5.12%); format: functional
[9] = tested on: B16-F10; test: Induction of apoptosis in mouse B16F10 cells assessed as late apoptotic cells at 5 uM after 24 hrs by FITC-annexin V/PI staining based flow cytometry (RVB = 4.94%); format: functional
[10] = tested on: B16-F10; test: Induction of apoptosis in mouse B16F10 cells assessed as early apoptotic cells at 5 uM after 24 hrs by FITC-annexin V/PI staining based flow cytometry (RVB = 0.36%); format: functional
[11] = tested on: B16-F10; test: Induction of apoptosis in mouse B16F10 cells assessed as viable cells at 5 uM after 24 hrs by FITC-annexin V/PI staining based flow cytometry (RVB = 89.58%); format: functional; conditions: B16-F10, 24 h, read-out: Activity
[12] = tested on: MDA-MB-231; test: Induction of apoptosis in human ER-negative MDA-MB-231 cells assessed as necrotic cells at 5 uM after 24 hrs by FITC-annexin V/PI staining based flow cytometry (RVB = 2.21%); format: functional
[13] = tested on: MDA-MB-231; test: Induction of apoptosis in human ER-negative MDA-MB-231 cells assessed as late apoptotic cells at 5 uM after 24 hrs by FITC-annexin V/PI staining based flow cytometry (RVB = 0.99%); format: functional
[14] = tested on: MDA-MB-231; test: Induction of apoptosis in human ER-negative MDA-MB-231 cells assessed as early apoptotic cells at 5 uM after 24 hrs by FITC-annexin V/PI staining based flow cytometry (RVB = 1.15%); format: functional
[15] = tested on: MDA-MB-231; test: Induction of apoptosis in human ER-negative MDA-MB-231 cells assessed as viable cells at 5 uM after 24 hrs by FITC-annexin V/PI staining based flow cytometry (RVB =95.66%); format: functional; conditions: MDA-MB-231, 24 h, read-out: Activity
[16] = tested on: MCF7; test: Induction of apoptosis in human ER-positive MCF7 cells assessed as necrotic cells at 5 uM after 24 hrs by FITC-annexin V/PI staining based flow cytometry (RVB = 3.24%); format: functional
[17] = tested on: MCF7; test: Induction of apoptosis in human ER-positive MCF7 cells assessed as late apoptotic cells at 5 uM after 24 hrs by FITC-annexin V/PI staining based flow cytometry (RVB = 3.68%); format: functional
[18] = tested on: MCF7; test: Induction of apoptosis in human ER-positive MCF7 cells assessed as early apoptotic cells at 5 uM after 24 hrs by FITC-annexin V/PI staining based flow cytometry (RVB = 0.86%); format: functional
[19] = tested on: MCF7; test: Induction of apoptosis in human ER-positive MCF7 cells assessed as viable cells at 5 uM after 24 hrs by FITC-annexin V/PI staining based flow cytometry (RVB = 92.22%); format: functional; conditions: MCF7, 24 h, read-out: Activity
[20] = tested on: RAW264.7; test: Induction of apoptosis in mouse RAW264.7 cells assessed as necrotic cells at 5 uM after 24 hrs by FITC-annexin V/PI staining based flow cytometry (RVB = 0.29%); format: cell-based; conditions: raw264.7, 24 h
[21] = tested on: RAW264.7; test: Induction of apoptosis in mouse RAW264.7 cells assessed as late apoptotic cells at 5 uM after 24 hrs by FITC-annexin V/PI staining based flow cytometry (RVB = 0.51%); format: cell-based; conditions: raw264.7, 24 h
[22] = tested on: RAW264.7; test: Induction of apoptosis in mouse RAW264.7 cells assessed as early apoptotic cells at 5 uM after 24 hrs by FITC-annexin V/PI staining based flow cytometry (RVB = 0.69%); format: cell-based; conditions: raw264.7, 24 h
[23] = Induction of apoptosis in mouse RAW264.7 cells assessed as viable cells at 5 uM after 24 hrs by FITC-annexin V/PI staining based flow cytometry (RVB = 98.51%); format: cell-based; conditions: read-out: Activity
[24] = tested on: CHO; test: Induction of apoptosis in CHO cells assessed as necrotic cells at 5 uM after 24 hrs by FITC-annexin V/PI staining based flow cytometry (RVB = 0.79%); format: cell-based, Cricetulus griseus; conditions: chinese hamster
[25] = tested on: CHO; test: Induction of apoptosis in CHO cells assessed as late apoptotic cells at 5 uM after 24 hrs by FITC-annexin V/PI staining based flow cytometry (RVB = 0.00%); format: cell-based, Cricetulus griseus; conditions: chinese hamster
[26] = tested on: CHO; test: Induction of apoptosis in CHO cells assessed as early apoptotic cells at 5 uM after 24 hrs by FITC-annexin V/PI staining based flow cytometry (RVB = 0.00%); format: cell-based, Cricetulus griseus; conditions: chinese hamster
[27] = Induction of apoptosis in CHO cells assessed as viable cells at 5 uM after 24 hrs by FITC-annexin V/PI staining based flow cytometry (RVB = 99.21%); format: cell-based, Cricetulus griseus; conditions: chinese hamster, read-out: Activity
[28] = tested on: MCF7; test: Cell cycle arrest in human ER-positive MCF7 cells assessed as accumulation at sub-G0 phase at 5 to 10 uM after 24 hrs by PI staining based flow cytometry; format: functional
[29] = Cell cycle arrest in mouse B16F10 cells assessed as accumulation at sub-G0 phase at 5 to 10 uM after 24 hrs by PI staining based flow cytometry; format: functional; conditions: B16-F10
[30] = tested on: MCF7; test: Cell cycle arrest in human ER-positive MCF7 cells assessed as reduction in accumulation at G0-G1 phase 5 to 10 uM after 24 hrs by PI staining based flow cytometry; format: functional
[31] = Cell cycle arrest in mouse B16F10 cells assessed as reduction in accumulation at G0-G1 phase 5 to 10 uM after 24 hrs by PI staining based flow cytometry; format: functional; conditions: B16-F10
[32] = tested on: B16-F10; test: Antitumor activity against mouse B16F10 cells inoculated in C57BL6J mouse assessed as tumor regression at 10 mg/kg, ip for 9 days; format: functional, organism-based; set-up: dose 10 mg/kg
[33] = tested on: B16-F10; test: Antitumor activity against mouse B16F10 cells expressing ER inoculated in C57BL6J mouse assessed as tumor regression at 10 mg/kg, ip for 9 days; format: functional, organism-based; set-up: dose 10 mg/kg
[34] = tested on: B16-F10; test: Antitumor activity against mouse B16F10 cells expressing ER inoculated in C57BL6J mouse assessed as tumor regression at 10 mg/kg, ip for 9 days in presence of estradiol; format: functional, organism-based; set-up: dose 10 mg/kg

Q: What does the source list for `CC/C(=C(\c1ccccc1)c1ccc(OCCN(C)C)cc1)c1ccccc1` [TAMOXIFEN]?
A: IC50 [1]: 4.67 µM; IC50 [2]: 39 µM; IC50 [3]: 64.9 µM; IC50 [4]: 33.1 µM; IC50 [5]: > 100 µM; IC50 [6]: > 100 µM

Q: Which results are given for `CCCCCCCCCCCC[N+](C)(CCCCCCCCCCCC)CCC[C@]1(O)CC[C@H]2[C@@H]3CCc4cc(O)ccc4[C@H]3CC[C@@]21C`?
A: IC50 [1]: 6.23 µM; IC50 [2]: 6.02 µM; IC50 [3]: 5.79 µM; IC50 [4]: 7.36 µM; IC50 [5]: 90.8 µM; IC50 [6]: 85.4 µM

Q: Which IC50 [1] does the source give for `CCCCCCCC[N+](C)(CCCCCCCC)CCC[C@]1(O)CC[C@H]2[C@@H]3CCc4cc(O)ccc4[C@H]3CC[C@@]21C` here?
A: Its IC50 is 5.34 µM.

Q: What about the IC50 [2] of the same compound?
A: The IC50 was 5.62 µM.

Q: What about the IC50 [3] of the same compound?
A: Its IC50 is 6.48 µM.

Q: And the IC50 [4]?
A: Its IC50 is 6.83 µM.

Q: What about the IC50 [5] of the same compound?
A: The IC50 was 45.3 µM.

Q: And the IC50 [6]?
A: Its IC50 is 51 µM.

Q: What about the inhibition [7] of the same compound?
A: Its inhibition is “Active”.

Q: What does the source list for `CCCCCCCCCC[N+](C)(CCCCCCCCCC)CCC[C@]1(O)CC[C@H]2[C@@H]3CCc4cc(O)ccc4[C@H]3CC[C@@]21C.[Cl-]`?
A: IC50 [1]: 1.36 µM; IC50 [2]: 1.14 µM; IC50 [3]: 0.5 µM; IC50 [4]: 0.46 µM; IC50 [5]: 81.7 µM; IC50 [6]: 47.7 µM; Activity [8]: 2.87%; Activity [9]: 67.86%; Activity [10]: 2.53%; viability at 5 µM [11]: 26.7%; Activity [12]: 3.39%; Activity [13]: 50.63%; Activity [14]: 21.65%; viability at 5 µM [15]: 24.3%; Activity [16]: 1.4%; Activity [17]: 45.94%; Activity [18]: 1.62%; viability at 5 µM [19]: 51%; Activity [20]: 0.1%; Activity [21]: 0.27%; Activity [22]: 0.55%; viability at 24 h, 5 µM [23]: 99.1%; Activity [24]: 0.86%; Activity [25]: 0.23%; Activity [26]: 0.56%; viability at 24 h, 5 µM [27]: 98.3%; Activity [28]: Active; Activity [29]: Active; Activity [30]: Active; Activity [31]: Active; inhibition [32]: Active; inhibition [33]: Active; inhibition [34]: inactive

Q: With `CCCCCC[N+](C)(CCCCCC)CCC[C@]1(O)CC[C@H]2[C@@H]3CCc4cc(O)ccc4[C@H]3CC[C@@]21C` as the compound, how does the IC50 [1] read?
A: Its IC50 is 7.85 µM.

Q: What about the IC50 [2] of the same compound?
A: Its IC50 is 6.78 µM.

Q: And the IC50 [3]?
A: Its IC50 is 6.56 µM.

Q: What about the IC50 [4] of the same compound?
A: The IC50 was 8.51 µM.

Q: What about the IC50 [5] of the same compound?
A: Its IC50 is 60.4 µM.

Q: And the IC50 [6]?
A: The IC50 was 45.8 µM.

Q: Which results are given for `C[C@]12CC[C@@H]3c4ccc(O)cc4CC[C@H]3[C@@H]1CC[C@@H]2O` [ESTRADIOL]?
A: IC50 [1]: 27.4 µM; IC50 [2]: 33.5 µM; IC50 [3]: 39.8 µM; IC50 [4]: 42.9 µM; IC50 [5]: > 100 µM; IC50 [6]: > 100 µM

Q: With `CCCCCCCCCCCCCC[N+](C)(CCCCCCCCCCCCCC)CCC[C@]1(O)CC[C@H]2[C@@H]3CCc4cc(O)ccc4[C@H]3CC[C@@]21C` as the compound, how does the IC50 [1] read?
A: Its IC50 is 17.4 µM.

Q: And the IC50 [2]?
A: Its IC50 is 38.7 µM.

Q: What about the IC50 [3] of the same compound?
A: The IC50 was 32.3 µM.

Q: And the IC50 [4]?
A: The IC50 was 42.5 µM.

Q: What about the IC50 [5] of the same compound?
A: The IC50 was greater than 100 µM.

Q: What about the IC50 [6] of the same compound?
A: The IC50 was 80.3 µM.

Reference: ChEMBL document CHEMBL3351426, “Development of new estradiol-cationic lipid hybrids: ten-carbon twin chain cationic lipid is a more suitable partner for estradiol to elicit better anticancer activity” (Eur J Med Chem, 2014)
